Laboratory results published in ChEMBL document CHEMBL1201862, “PubChem BioAssay data set” (2004).
Activity calls are given as the source filed them.

Tests used:
[1] = target: T1, Sentrin-specific protease 7 (Homo sapiens, UniProt Q9BQF6); type: functional;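 also: Luminescence-based dose-response confirmation of ultra-high-throughput screening hits, measuring inhibition of SENP7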
T1 sequence (Q9BQF6 whole entry): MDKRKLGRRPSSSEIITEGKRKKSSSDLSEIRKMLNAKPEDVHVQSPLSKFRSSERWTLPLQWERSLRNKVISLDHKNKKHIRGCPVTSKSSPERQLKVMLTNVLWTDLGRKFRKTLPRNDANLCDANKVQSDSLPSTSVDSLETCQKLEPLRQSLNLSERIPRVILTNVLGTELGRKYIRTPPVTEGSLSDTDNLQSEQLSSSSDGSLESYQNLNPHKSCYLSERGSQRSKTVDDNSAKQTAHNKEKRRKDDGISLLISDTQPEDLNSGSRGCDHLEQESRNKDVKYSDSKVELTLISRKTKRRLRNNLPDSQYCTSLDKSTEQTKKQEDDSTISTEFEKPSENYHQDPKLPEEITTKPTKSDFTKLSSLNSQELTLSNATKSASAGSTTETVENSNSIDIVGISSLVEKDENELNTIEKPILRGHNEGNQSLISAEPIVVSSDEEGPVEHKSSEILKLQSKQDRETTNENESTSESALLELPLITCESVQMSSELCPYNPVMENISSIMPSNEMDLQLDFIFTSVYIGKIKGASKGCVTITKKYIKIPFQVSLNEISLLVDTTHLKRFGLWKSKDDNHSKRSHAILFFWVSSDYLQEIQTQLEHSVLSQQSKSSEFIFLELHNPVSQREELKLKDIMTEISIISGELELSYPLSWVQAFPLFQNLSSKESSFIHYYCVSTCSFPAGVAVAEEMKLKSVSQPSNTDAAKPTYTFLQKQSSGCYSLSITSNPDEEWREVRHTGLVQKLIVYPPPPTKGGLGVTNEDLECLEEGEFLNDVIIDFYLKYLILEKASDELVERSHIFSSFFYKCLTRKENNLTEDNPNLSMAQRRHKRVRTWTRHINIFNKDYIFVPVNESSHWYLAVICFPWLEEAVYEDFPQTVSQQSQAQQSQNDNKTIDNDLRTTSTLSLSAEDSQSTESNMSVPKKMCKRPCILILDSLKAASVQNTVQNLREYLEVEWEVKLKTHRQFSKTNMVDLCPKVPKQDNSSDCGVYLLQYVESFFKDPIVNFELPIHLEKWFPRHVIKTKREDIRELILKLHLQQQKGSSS

[2] = target: T2, Histone-lysine N-methyltransferase NSD2 (Homo sapiens, UniProt O96028); type: biochemical
T2 sequence (O96028 whole entry): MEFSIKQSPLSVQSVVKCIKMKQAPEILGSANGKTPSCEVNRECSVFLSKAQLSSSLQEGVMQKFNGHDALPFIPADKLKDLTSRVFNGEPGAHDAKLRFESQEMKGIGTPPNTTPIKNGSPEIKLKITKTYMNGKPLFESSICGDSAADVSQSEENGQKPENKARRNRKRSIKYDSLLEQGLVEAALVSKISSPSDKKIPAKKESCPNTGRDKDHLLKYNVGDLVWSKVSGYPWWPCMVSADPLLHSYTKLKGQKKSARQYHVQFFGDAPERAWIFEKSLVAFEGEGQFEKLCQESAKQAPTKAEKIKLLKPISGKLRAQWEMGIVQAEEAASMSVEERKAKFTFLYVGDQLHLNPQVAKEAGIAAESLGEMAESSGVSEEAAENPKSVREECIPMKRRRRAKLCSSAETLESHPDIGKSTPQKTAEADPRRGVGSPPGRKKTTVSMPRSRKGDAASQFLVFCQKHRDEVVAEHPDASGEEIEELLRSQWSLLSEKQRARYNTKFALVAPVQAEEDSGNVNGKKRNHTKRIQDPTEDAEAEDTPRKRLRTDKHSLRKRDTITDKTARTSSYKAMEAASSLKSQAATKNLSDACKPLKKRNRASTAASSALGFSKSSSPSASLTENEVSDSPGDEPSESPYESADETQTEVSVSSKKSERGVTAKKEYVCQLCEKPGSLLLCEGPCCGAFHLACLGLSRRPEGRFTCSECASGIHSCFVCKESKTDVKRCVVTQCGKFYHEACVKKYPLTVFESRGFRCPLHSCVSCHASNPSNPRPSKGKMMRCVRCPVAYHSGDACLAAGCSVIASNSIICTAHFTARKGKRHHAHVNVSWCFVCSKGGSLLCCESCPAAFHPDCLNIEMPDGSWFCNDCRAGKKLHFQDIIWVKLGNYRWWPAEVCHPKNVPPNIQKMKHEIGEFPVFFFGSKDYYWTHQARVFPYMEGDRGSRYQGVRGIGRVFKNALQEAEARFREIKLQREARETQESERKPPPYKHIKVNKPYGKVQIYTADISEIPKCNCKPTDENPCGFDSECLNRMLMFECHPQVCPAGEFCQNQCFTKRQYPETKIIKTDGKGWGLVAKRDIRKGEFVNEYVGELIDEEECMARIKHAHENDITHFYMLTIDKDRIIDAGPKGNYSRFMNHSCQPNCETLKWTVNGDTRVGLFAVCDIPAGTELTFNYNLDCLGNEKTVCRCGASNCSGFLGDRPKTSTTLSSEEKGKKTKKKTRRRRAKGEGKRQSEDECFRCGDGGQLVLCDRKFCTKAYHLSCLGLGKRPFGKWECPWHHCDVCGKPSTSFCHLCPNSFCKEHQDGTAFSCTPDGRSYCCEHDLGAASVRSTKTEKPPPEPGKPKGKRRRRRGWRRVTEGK

SMILES | IC50 [1] | AC50 [2]
c1ccc2c(Nc3nnc(-c4ccncc4)s3)cccc2c1 | 5.51 µM (active) | 
COc1cc(C(=O)c2nccc3cc(OC)c(OC)cc23)c([N+](=O)[O-])cc1OC | 2.93 µM (active) | > 20 µM (inactive)
N=C1S/C(=C\c2ccc(-c3ccccc3C(=O)O)o2)C(=O)N1c1ccc2c(c1)OCO2 |  | 3.28 µM (active)
